Assay results as given in the NIST ThermoML archive (doi:10.1021/je400539h).
± gives the expanded uncertainty stated by the source.

Experiment: xn = mol fraction of the nth substance listed
Settings: 101 kPa, Liquid

CCCCCCOC(C)=O [hexyl ethanoate] + C1CCOC1
Settings | mass density [kg/m3] | speed of sound [m/s] | viscosity [mPa·s]
298.15 K, x1 = 0.0514 | 882.2 ± 1.4 | 1260 ± 11 | 0.485 ± 0.016
298.15 K, x1 = 0.1091 | 882.2 ± 1.4 | 1256 ± 11 | 0.526 ± 0.017
298.15 K, x1 = 0.1735 | 882.1 ± 1.4 | 1248 ± 11 | 0.57 ± 0.017
298.15 K, x1 = 0.2467 | 881.7 ± 1.4 | 1240 ± 11 | 0.616 ± 0.018
298.15 K, x1 = 0.3289 | 880.9 ± 1.4 | 1236 ± 11 | 0.669 ± 0.019
298.15 K, x1 = 0.4241 | 879.6 ± 1.4 | 1232 ± 11 | 0.73 ± 0.02
298.15 K, x1 = 0.5384 | 877.8 ± 1.4 | 1232 ± 11 | 0.79 ± 0.021
298.15 K, x1 = 0.6648 | 875.5 ± 1.4 | 1232 ± 11 | 0.875 ± 0.022
298.15 K, x1 = 0.8185 | 872.4 ± 1.4 | 1232 ± 11 | 0.967 ± 0.024
298.15 K, x1 = 1 | 868.3 ± 1.5 | 1236 ± 11 | 1.071 ± 0.026
303.15 K, x1 = 0.0514 | 878.8 ± 1.4 | 1236 ± 11 | 0.471 ± 0.016
303.15 K, x1 = 0.1091 | 878.6 ± 1.4 | 1232 ± 11 | 0.504 ± 0.016
303.15 K, x1 = 0.1735 | 878.3 ± 1.4 | 1224 ± 11 | 0.543 ± 0.017
303.15 K, x1 = 0.2467 | 877.6 ± 1.4 | 1212 ± 11 | 0.584 ± 0.018
303.15 K, x1 = 0.3289 | 876.6 ± 1.4 | 1208 ± 11 | 0.632 ± 0.018
303.15 K, x1 = 0.4241 | 875.2 ± 1.4 | 1204 ± 11 | 0.683 ± 0.019
303.15 K, x1 = 0.5384 | 873.3 ± 1.4 | 1204 ± 11 | 0.745 ± 0.02
303.15 K, x1 = 0.6648 | 870.9 ± 1.4 | 1204 ± 11 | 0.812 ± 0.021
303.15 K, x1 = 0.8185 | 867.7 ± 1.5 | 1204 ± 11 | 0.892 ± 0.023
303.15 K, x1 = 1 | 863.9 ± 1.5 | 1216 ± 11 | 0.982 ± 0.024
308.15 K, x1 = 0.0514 | 872.9 ± 1.4 | 1216 ± 11 | 0.456 ± 0.016
308.15 K, x1 = 0.1091 | 872.7 ± 1.4 | 1208 ± 11 | 0.484 ± 0.016
308.15 K, x1 = 0.1735 | 872.4 ± 1.4 | 1200 ± 11 | 0.518 ± 0.016
308.15 K, x1 = 0.2467 | 871.9 ± 1.4 | 1188 ± 10 | 0.554 ± 0.017
308.15 K, x1 = 0.3289 | 871.2 ± 1.4 | 1184 ± 10 | 0.595 ± 0.018
308.15 K, x1 = 0.4241 | 870 ± 1.4 | 1180 ± 10 | 0.641 ± 0.018
308.15 K, x1 = 0.5384 | 868.2 ± 1.5 | 1180 ± 10 | 0.692 ± 0.019
308.15 K, x1 = 0.6648 | 866 ± 1.5 | 1180 ± 10 | 0.751 ± 0.02
308.15 K, x1 = 0.8185 | 863 ± 1.5 | 1180 ± 10 | 0.819 ± 0.022
308.15 K, x1 = 1 | 859.8 ± 1.5 | 1196 ± 11 | 0.898 ± 0.023
313.15 K, x1 = 0.0514 | 866.7 ± 1.5 | 1200 ± 11 | 0.416 ± 0.015
313.15 K, x1 = 0.1091 | 866.5 ± 1.5 | 1188 ± 10 | 0.444 ± 0.015
313.15 K, x1 = 0.1735 | 866.2 ± 1.5 | 1176 ± 10 | 0.475 ± 0.016
313.15 K, x1 = 0.2467 | 865.8 ± 1.5 | 1168 ± 10 | 0.508 ± 0.016
313.15 K, x1 = 0.3289 | 865.2 ± 1.5 | 1164 ± 10 | 0.547 ± 0.017
313.15 K, x1 = 0.4241 | 864.2 ± 1.5 | 1156 ± 10 | 0.591 ± 0.018
313.15 K, x1 = 0.5384 | 862.6 ± 1.5 | 1152 ± 10 | 0.639 ± 0.018
313.15 K, x1 = 0.6648 | 860.5 ± 1.5 | 1152 ± 10 | 0.695 ± 0.019
313.15 K, x1 = 0.8185 | 857.8 ± 1.5 | 1152 ± 10 | 0.761 ± 0.02
313.15 K, x1 = 1 | 855 ± 1.5 | 1176 ± 10 | 0.836 ± 0.022

C1CCOC1 [tetrahydrofuran] + CCCCCCOC(C)=O
x2 = 0
Settings | mass density [kg/m3] | speed of sound [m/s] | viscosity [mPa·s]
298.15 K | 881.5 ± 1.4 | 1268 ± 11 | 0.45 ± 0.015
303.15 K | 878.7 ± 1.4 | 1248 ± 11 | 0.439 ± 0.015
308.15 K | 873 ± 1.4 | 1228 ± 11 | 0.429 ± 0.015
313.15 K | 866.9 ± 1.5 | 1212 ± 11 | 0.404 ± 0.015

COc1ccccc1 [anisole] + CCCCCCOC(C)=O
x2 = 0
Settings | mass density [kg/m3] | speed of sound [m/s] | viscosity [mPa·s]
298.15 K | 993.6 ± 1 | 1396 ± 12 | 0.97 ± 0.024
303.15 K | 989.4 ± 1 | 1380 ± 12 | 0.917 ± 0.023
308.15 K | 984.6 ± 1 | 1364 ± 12 | 0.863 ± 0.022
313.15 K | 980 ± 1 | 1348 ± 11 | 0.803 ± 0.021
